# Test system: A2780 ovarian cancer cells
# Assay: Cellular proliferation in A2780 cells, Cell Titer Glo (Biological Method 4)
# Type: cell-based
# Conditions: Homo sapiens; ovarian cancer cell line A2780
# Procedure, shortened: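 A2780 cells seeded at 1,000/well in DMEM with 10% FBS, at least 2 h before compound, then exposed 72 h at 37 °C, 5% CO2. Viable cells measured by Cell Titer Glo luminescence; EC50 calculated from duplicate conditions.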
row,Structure (SMILES),EC50
1,Nc1ncc(-c2nc(N3CCOCC3)ncc2C(F)(F)F)cn1 [Compound 474],< 25000 nM
2,COc1ccc2cc(Nc3cc(-c4ccc(N)nc4)nc(N4CCOCC4)n3)cnc2c1 [Compound 494],< 25000 nM
3,N#Cc1cnc(N2CCOCC2)nc1-c1cnc(N)nc1 [Compound 418],< 25000 nM
4,Nc1ncc(-c2cc(CNC(=O)OC3CCOC3)nc(N3CCOCC3)n2)c(N)n1 (stereo not shown) [Compound 541],< 25000 nM
5,CNc1cc(-c2cnc(N)nc2)nc(N2CCOCC2)n1 [Compound 401],< 25000 nM
6,Nc1ccc(-c2cc(N3CCOCC3)nc(N3CCOCC3)n2)c(=O)[nH]1 [Compound 551],< 10000 nM
7,CC(=O)N1CCC[C@H](Oc2cc(-c3cnc(N)nc3N)nc(N3CCOCC3)n2)C1 [Compound 529],< 10000 nM
8,Nc1cc(C(F)(F)F)c(-c2cc(Nc3ccncc3)nc(N3CCOCC3)n2)cn1 [Compound 447],< 25000 nM
9,Nc1cc(C(F)(F)F)c(-c2cc(O[C@H]3CCOC3)nc(N3CCOCC3)n2)cn1 [Compound 26],< 10000 nM
10,COC(=O)N1CC[C@@H](Oc2cc(-c3cnc(N)cc3C(F)(F)F)nc(N3CCOCC3)n2)C1 [Compound 539],< 10000 nM
11,CN1CCC(Oc2cc(-c3cnc(N)nc3)nc(N3CCOCC3)n2)CC1 [Compound 514],< 10000 nM
12,Nc1ncc(-c2cc(N3CCCC3)nc(N3CCOCC3)n2)cn1 [Compound 399],< 10000 nM
13,CC(=O)N1CCC[C@H](Oc2cc(-c3cnc(N)cc3C(F)(F)F)nc(N3CCOCC3)n2)C1 [Compound 455],< 10000 nM
14,Nc1ncc(-c2ccnc(N3CCOCC3)n2)c(N)n1 [Compound 463],< 25000 nM
15,Nc1ncc(-c2cc(NC3CC3)nc(N3CCOCC3)n2)cn1 [Compound 402],< 10000 nM

# The next lines start with the values.
row,EC50,Structure (SMILES)
1,< 1000 nM,Nc1cc(C(F)(F)F)c(-c2cc(N3CCCCC3=O)nc(N3CCOCC3)n2)cn1 [Compound 17]
2,< 1000 nM,COCCNc1cc(-c2cnc(N)nc2)nc(N2CCOCC2)n1 [Compound 14]
3,< 10000 nM,Nc1ccc(-c2cc(Nc3ccccc3F)nc(N3CCOCC3)n2)cn1 [Compound 440]
4,< 1000 nM,Nc1ncc(-c2cc(Nc3ccnc4cc(C(F)(F)F)ccc34)nc(N3CCOCC3)n2)cn1 [Compound 409]
5,< 10000 nM,Nc1ncc(-c2cc(C(F)(F)F)nc(N3CCOCC3)n2)cn1 [Compound 472]
6,< 10000 nM,Nc1ccc(-c2cc(Nc3ccc(NCCN4CCCC4)nc3)nc(N3CCOCC3)n2)cn1 [Compound 497]
7,< 10000 nM,COc1ccc(Nc2cc(-c3cnc(N)nc3C)nc(N3CCOCC3)n2)cn1 [Compound 476]
8,< 10000 nM,COc1cncc(-c2nc(N3CCOCC3)nc(-c3cnc(N)nc3)c2C)c1 [Compound 475]
9,< 10000 nM,Cc1c(-c2ccc(S(C)(=O)=O)cc2)nc(N2CCOCC2)nc1-c1cnc(N)nc1 [Compound 549]
10,< 10000 nM,CC(C)N1CCN(c2ccc(Nc3cc(-c4ccc(N)nc4)nc(N4CCOCC4)n3)cn2)CC1 [Compound 509]
11,< 10000 nM,Nc1ncc(-c2cc(O[C@@H]3CCOC3)nc(N3CCOCC3)n2)c(C(F)(F)F)n1 [Compound 531]
12,< 10000 nM,Nc1ncc(-c2cc(Nc3ccnc4ccc(C(F)(F)F)cc34)nc(N3CCOCC3)n2)cn1 [Compound 410]
13,< 10000 nM,COC(=O)N1CCC[C@H](Oc2cc(-c3cnc(N)cc3C(F)(F)F)nc(N3CCOCC3)n2)C1 [Compound 454]
14,< 10000 nM,CC(C)OC(=O)N1CCC[C@@H](Oc2cc(-c3cnc(N)nc3N)nc(N3CCOCC3)n2)C1 [Compound 527]
15,< 1000 nM,Nc1ncc(-c2cc(Nc3ccc4c(c3)OCC(=O)N4)nc(N3CCOCC3)n2)cn1 [Compound 412]
16,< 1000 nM,CC(C)(C)OC(=O)N1CCC[C@H](Oc2cc(-c3cnc(N)cc3C(F)(F)F)nc(N3CCOCC3)n2)C1 [Compound 20]
17,< 1000 nM,Cc1c(Nc2ccc3c(c2)OCCO3)nc(N2CCOCC2)nc1-c1cnc(N)nc1 [Compound 481]

# Target: PI3 kinase alpha (Homo sapiens, UniProt P42336)
# Assay: PI3K ATP depletion assay (Biological Method 1, Assay 3; KinaseGlo luminescence)
# Type: biochemical
# Conditions: ATP depletion assay; read-out: PI3 Kinase Alpha, IC50
# Procedure, shortened: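 Compound in DMSO was mixed with 10 nM PI3 kinase and 5 μg/mL phosphatidylinositol, and the reaction was started with 2 μM ATP. It ran to about 50% ATP depletion and was stopped with KinaseGlo.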
# PI3 kinase alpha, sequence (P42336 whole entry): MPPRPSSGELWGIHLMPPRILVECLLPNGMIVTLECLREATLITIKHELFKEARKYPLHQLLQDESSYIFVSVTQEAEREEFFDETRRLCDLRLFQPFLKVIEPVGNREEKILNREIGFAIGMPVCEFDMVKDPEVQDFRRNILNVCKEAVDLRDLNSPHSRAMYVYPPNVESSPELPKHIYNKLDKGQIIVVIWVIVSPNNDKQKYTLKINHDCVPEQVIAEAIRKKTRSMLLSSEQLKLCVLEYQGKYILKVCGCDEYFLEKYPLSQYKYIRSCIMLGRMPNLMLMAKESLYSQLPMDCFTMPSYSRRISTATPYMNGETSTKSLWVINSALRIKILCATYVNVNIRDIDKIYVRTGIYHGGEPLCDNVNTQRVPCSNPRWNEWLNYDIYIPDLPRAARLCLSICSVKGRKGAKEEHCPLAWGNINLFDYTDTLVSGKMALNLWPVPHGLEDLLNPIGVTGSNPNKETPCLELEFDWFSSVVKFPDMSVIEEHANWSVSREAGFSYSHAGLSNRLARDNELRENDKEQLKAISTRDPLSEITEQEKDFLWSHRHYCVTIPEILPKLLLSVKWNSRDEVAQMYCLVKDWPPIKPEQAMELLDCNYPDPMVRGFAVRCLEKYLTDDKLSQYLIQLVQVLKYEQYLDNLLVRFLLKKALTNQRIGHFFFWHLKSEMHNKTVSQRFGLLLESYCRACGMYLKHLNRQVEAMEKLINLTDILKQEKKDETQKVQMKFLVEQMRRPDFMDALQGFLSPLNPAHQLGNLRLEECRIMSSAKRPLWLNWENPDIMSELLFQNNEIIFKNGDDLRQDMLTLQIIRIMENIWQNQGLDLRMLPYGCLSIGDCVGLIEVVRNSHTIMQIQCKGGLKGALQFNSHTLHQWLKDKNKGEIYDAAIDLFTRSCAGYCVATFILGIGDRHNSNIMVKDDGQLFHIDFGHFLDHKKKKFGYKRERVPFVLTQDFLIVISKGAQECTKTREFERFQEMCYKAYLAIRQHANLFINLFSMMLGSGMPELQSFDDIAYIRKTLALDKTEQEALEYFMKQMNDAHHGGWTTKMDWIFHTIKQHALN
# PI3 kinase alpha, sequence (P27986 whole entry partner): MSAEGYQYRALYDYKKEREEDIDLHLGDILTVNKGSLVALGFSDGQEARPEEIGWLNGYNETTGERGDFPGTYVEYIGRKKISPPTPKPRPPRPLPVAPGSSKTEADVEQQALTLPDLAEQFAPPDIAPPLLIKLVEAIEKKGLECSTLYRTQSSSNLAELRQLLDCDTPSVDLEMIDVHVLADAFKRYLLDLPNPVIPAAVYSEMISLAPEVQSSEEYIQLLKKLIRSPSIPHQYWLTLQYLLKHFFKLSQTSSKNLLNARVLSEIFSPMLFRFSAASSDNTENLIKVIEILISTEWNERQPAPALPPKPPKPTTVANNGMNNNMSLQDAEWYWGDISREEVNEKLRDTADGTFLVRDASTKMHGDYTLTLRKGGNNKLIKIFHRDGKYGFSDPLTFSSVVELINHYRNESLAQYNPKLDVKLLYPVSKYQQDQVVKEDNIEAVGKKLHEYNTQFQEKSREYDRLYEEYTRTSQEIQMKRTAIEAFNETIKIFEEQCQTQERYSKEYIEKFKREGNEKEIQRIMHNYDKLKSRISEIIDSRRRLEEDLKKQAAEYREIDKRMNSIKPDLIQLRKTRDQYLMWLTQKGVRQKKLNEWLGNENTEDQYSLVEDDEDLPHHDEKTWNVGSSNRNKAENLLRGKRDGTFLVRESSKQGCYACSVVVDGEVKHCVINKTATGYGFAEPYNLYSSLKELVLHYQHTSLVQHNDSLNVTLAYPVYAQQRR
row,Structure (SMILES),IC50
1,Nc1ncc(-c2nc(N3CCOCC3)ncc2C(F)(F)F)cn1 [Compound 474],< 1000 nM
2,COc1ccc2cc(Nc3cc(-c4ccc(N)nc4)nc(N4CCOCC4)n3)cnc2c1 [Compound 494],< 1000 nM
3,N#Cc1cnc(N2CCOCC2)nc1-c1cnc(N)nc1 [Compound 418],< 1000 nM
4,Nc1ncc(-c2cc(CNC(=O)OC3CCOC3)nc(N3CCOCC3)n2)c(N)n1 (stereo not shown) [Compound 541],< 1000 nM
5,CNc1cc(-c2cnc(N)nc2)nc(N2CCOCC2)n1 [Compound 401],< 1000 nM
6,Nc1ccc(-c2cc(N3CCOCC3)nc(N3CCOCC3)n2)c(=O)[nH]1 [Compound 551],< 1000 nM
7,CC(=O)N1CCC[C@H](Oc2cc(-c3cnc(N)nc3N)nc(N3CCOCC3)n2)C1 [Compound 529],< 1000 nM
8,Nc1cc(C(F)(F)F)c(-c2cc(Nc3ccncc3)nc(N3CCOCC3)n2)cn1 [Compound 447],< 1000 nM
9,Nc1cc(C(F)(F)F)c(-c2cc(O[C@H]3CCOC3)nc(N3CCOCC3)n2)cn1 [Compound 26],< 1000 nM
10,COC(=O)N1CC[C@@H](Oc2cc(-c3cnc(N)cc3C(F)(F)F)nc(N3CCOCC3)n2)C1 [Compound 539],< 1000 nM
11,CN1CCC(Oc2cc(-c3cnc(N)nc3)nc(N3CCOCC3)n2)CC1 [Compound 514],< 1000 nM
12,Nc1ncc(-c2cc(N3CCCC3)nc(N3CCOCC3)n2)cn1 [Compound 399],< 1000 nM
13,CC(=O)N1CCC[C@H](Oc2cc(-c3cnc(N)cc3C(F)(F)F)nc(N3CCOCC3)n2)C1 [Compound 455],< 1000 nM
14,Nc1ncc(-c2ccnc(N3CCOCC3)n2)c(N)n1 [Compound 463],< 1000 nM
15,Nc1ncc(-c2cc(NC3CC3)nc(N3CCOCC3)n2)cn1 [Compound 402],< 1000 nM

# The next lines start with the values.
row,IC50,Structure (SMILES)
1,< 1000 nM,Nc1cc(C(F)(F)F)c(-c2cc(N3CCCCC3=O)nc(N3CCOCC3)n2)cn1 [Compound 17]
2,< 1000 nM,COCCNc1cc(-c2cnc(N)nc2)nc(N2CCOCC2)n1 [Compound 14]
3,< 1000 nM,Nc1ccc(-c2cc(Nc3ccccc3F)nc(N3CCOCC3)n2)cn1 [Compound 440]
4,< 1000 nM,Nc1ncc(-c2cc(Nc3ccnc4cc(C(F)(F)F)ccc34)nc(N3CCOCC3)n2)cn1 [Compound 409]
5,< 1000 nM,Nc1ncc(-c2cc(C(F)(F)F)nc(N3CCOCC3)n2)cn1 [Compound 472]
6,< 1000 nM,Nc1ccc(-c2cc(Nc3ccc(NCCN4CCCC4)nc3)nc(N3CCOCC3)n2)cn1 [Compound 497]
7,< 1000 nM,COc1ccc(Nc2cc(-c3cnc(N)nc3C)nc(N3CCOCC3)n2)cn1 [Compound 476]
8,< 1000 nM,COc1cncc(-c2nc(N3CCOCC3)nc(-c3cnc(N)nc3)c2C)c1 [Compound 475]
9,< 1000 nM,Cc1c(-c2ccc(S(C)(=O)=O)cc2)nc(N2CCOCC2)nc1-c1cnc(N)nc1 [Compound 549]
10,< 1000 nM,CC(C)N1CCN(c2ccc(Nc3cc(-c4ccc(N)nc4)nc(N4CCOCC4)n3)cn2)CC1 [Compound 509]
11,< 1000 nM,Nc1ncc(-c2cc(O[C@@H]3CCOC3)nc(N3CCOCC3)n2)c(C(F)(F)F)n1 [Compound 531]
12,< 1000 nM,Nc1ncc(-c2cc(Nc3ccnc4ccc(C(F)(F)F)cc34)nc(N3CCOCC3)n2)cn1 [Compound 410]
13,< 1000 nM,COC(=O)N1CCC[C@H](Oc2cc(-c3cnc(N)cc3C(F)(F)F)nc(N3CCOCC3)n2)C1 [Compound 454]
14,< 1000 nM,CC(C)OC(=O)N1CCC[C@@H](Oc2cc(-c3cnc(N)nc3N)nc(N3CCOCC3)n2)C1 [Compound 527]
15,< 1000 nM,Nc1ncc(-c2cc(Nc3ccc4c(c3)OCC(=O)N4)nc(N3CCOCC3)n2)cn1 [Compound 412]
16,< 1000 nM,CC(C)(C)OC(=O)N1CCC[C@H](Oc2cc(-c3cnc(N)cc3C(F)(F)F)nc(N3CCOCC3)n2)C1 [Compound 20]
17,< 1000 nM,Cc1c(Nc2ccc3c(c2)OCCO3)nc(N2CCOCC2)nc1-c1cnc(N)nc1 [Compound 481]
